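Following 48 hours of exposure in 96-well plates, responses at five concentrations were used to interpolate endpoints linearly. Here, GI50 denotes the concentration required for 50% inhibition of growth. TGI denotes the concentration required for complete inhibition of growth.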

This note sets out measurements from PubChem BioAssay (NCI).

Some test systems named below: A549 NSCLC; LOX IMVI melanoma; OVCAR-8 ovarian; SF-295 CNS; SF-539 CNS; SK-MEL-28 melanoma; HS 578T breast; NCI/ADR-RES ovarian.
Holding throughout (experiment): NCI tumour cell line growth inhibition, 48 h

On to `CC(C)N(C(=O)C12C3C4C5(C#N)C3C1(C#N)C5C42C#N)C(C)C` (centres undefined), for which the TGI in the assay with A549 NSCLC, in the assay with LOX IMVI melanoma, with OVCAR-8 ovarian, in the assay on SF-295 CNS, with SF-539 CNS and with SK-MEL-28 melanoma was > 100 µM each time.
With `O=C1[C@H]2ON(c3ccccc3)C(c3ccc([N+](=O)[O-])cc3)[C@H]2C(=O)N1c1ccc(Cc2ccc(N3C(=O)[C@@H]4ON(c5ccccc5)C(c5ccc([N+](=O)[O-])cc5)[C@@H]4C3=O)cc2)cc1` (some centres undefined), the TGI with A549 NSCLC, in the assay with LOX IMVI melanoma, in the assay with OVCAR-8 ovarian, in the assay with SF-295 CNS, in the assay with SF-539 CNS and in the assay on SK-MEL-28 melanoma was > 100 µM each time.
As for `CSc1ccc2c(cc1=O)[C@@H](NC(=O)c1cccc([N+](=O)[O-])c1)CCc1cc(O)c(O)c(O)c1-2`, the TGI in the assay on A549 NSCLC is > 100 µM; with LOX IMVI melanoma it was 32.2 µM; in the assay with OVCAR-8 ovarian, > 100 µM; in the assay with SF-295 CNS, > 100 µM; in the assay with SF-539 CNS it was 62.9 µM; in the assay with SK-MEL-28 melanoma, > 100 µM.
Turning to `COc1cc2cc(OC(C)=O)c3cc4c(cc3c2c(OC)c1OC)OCO4`, the TGI in the assay with A549 NSCLC, with LOX IMVI melanoma, with OVCAR-8 ovarian, in the assay on SF-295 CNS, with SF-539 CNS and with SK-MEL-28 melanoma was > 100 µM each time.
Take `N#C/C(=C\c1cc(O)cc(O)c1)C(N)=O`: the TGI in the assay with A549 NSCLC, in the assay with OVCAR-8 ovarian, with SF-295 CNS, in the assay on SF-539 CNS and in the assay on SK-MEL-28 melanoma was > 100 µM each time.
For `CC1(C)OC2C(CCP(=O)(O)O)OC(c3nc(C(N)=O)cs3)C2O1` (centres undefined), the TGI with A549 NSCLC, in the assay on LOX IMVI melanoma, with OVCAR-8 ovarian and with SK-MEL-28 melanoma was > 100 µM throughout.
On to `NC(=O)NNC(=O)CCn1[nH]c(=O)c(Cl)c(Cl)c1=O`, for which the TGI in the assay with A549 NSCLC, with LOX IMVI melanoma, with OVCAR-8 ovarian, in the assay with SF-295 CNS and in the assay with SK-MEL-28 melanoma was > 100 µM each time.
In the case of `CCOC(OC(C)=O)[C@@H]1C=C[C@H](C)N(c2ccc([N+](=O)[O-])cc2)O1` (some centres undefined), the TGI in the assay with A549 NSCLC worked out at 43.4 µM; in the assay with LOX IMVI melanoma, 4.12 µM; in the assay with OVCAR-8 ovarian it was 4.55 µM; in the assay on SF-295 CNS, 27.4 µM; in the assay with SF-539 CNS it was 8.44 µM; with SK-MEL-28 melanoma it was 9.62 µM.
In the case of `CCN(CC)CCCNc1nccc2c(C)c3c(cc12)c1cnccc1n3C`, the TGI in the assay with A549 NSCLC was 1.37 µM; in the assay with LOX IMVI melanoma, 0.268 µM; with OVCAR-8 ovarian, 1.25 µM; in the assay with SF-295 CNS it was 1.31 µM; with SF-539 CNS it was 0.609 µM; in the assay on SK-MEL-28 melanoma, 1.47 µM.
As to `NNC(=O)C(=O)N/N=C(\CCCC(=O)Nc1ccc(Cl)cc1)CC(=O)c1ccc(F)cc1`, the TGI with A549 NSCLC, in the assay on LOX IMVI melanoma, in the assay with OVCAR-8 ovarian, in the assay with SF-295 CNS and in the assay on SK-MEL-28 melanoma was > 100 µM in each case.
As for `C=CCNC(=O)NCCCCC(NC(C)=O)C(=O)NCc1ccccc1` (centres undefined), the TGI with A549 NSCLC, with LOX IMVI melanoma, in the assay with OVCAR-8 ovarian, in the assay with SF-295 CNS, in the assay on SF-539 CNS and in the assay with SK-MEL-28 melanoma was > 100 µM in each case.
For the compound `O=c1c2c(nc3n1CCS3)[nH]c1cc([N+](=O)[O-])ccc12`, the GI50 in the assay with A549 NSCLC, in the assay on HS 578T breast, with LOX IMVI melanoma, in the assay on NCI/ADR-RES ovarian, with OVCAR-8 ovarian and in the assay with SF-295 CNS was > 100 µM throughout. In addition, the GI50 with SF-539 CNS and in the assay on SK-MEL-28 melanoma was > 100 µM in each case. The TGI in the assay with A549 NSCLC, with HS 578T breast, in the assay on LOX IMVI melanoma, with NCI/ADR-RES ovarian, in the assay with OVCAR-8 ovarian and with SF-295 CNS was > 100 µM throughout. For the same compound, the TGI in the assay with SF-539 CNS and with SK-MEL-28 melanoma was > 100 µM each time.
As to `CC(C)(C)C1=CC(=C(P(=O)(O)O)P(=O)(O)O)C=C(C(C)(C)C)C1=O`, the TGI in the assay with A549 NSCLC, in the assay on LOX IMVI melanoma, with OVCAR-8 ovarian, in the assay on SF-295 CNS, with SF-539 CNS and in the assay with SK-MEL-28 melanoma was > 50 µM each time.
For `COC(=O)c1cc2c(=O)n(C)c3ccccc3n2c1C(=O)OC`, the TGI is > 100 µM in the assay on A549 NSCLC; > 100 µM in the assay with LOX IMVI melanoma; > 100 µM with OVCAR-8 ovarian; > 100 µM with SF-295 CNS; 75.8 µM in the assay with SF-539 CNS; > 100 µM in the assay on SK-MEL-28 melanoma.
